The structures appear in SMILES notation.

One test addresses Adenosine A2A Receptor (Homo sapiens, UniProt P29274). Nature of the test: Activity assay of adenosine receptor modulators, Adenosine A2A Receptor (Table 1). Type of test: biochemical. Conditions: cAMP; read-out: A2AR cAMP IC50. The protocol:
(§1) Compounds (e.g., adenosine receptor modulators) were tested for its biological activity. The assay results in Table 1 indicate (+ means >1 μM; ++ means 100 nM to 1 μM; +++ means <100 nM).

The next test has as its target T1, A3R (Homo sapiens, UniProt P0DMS8).
T1 sequence (P0DMS8 1-318): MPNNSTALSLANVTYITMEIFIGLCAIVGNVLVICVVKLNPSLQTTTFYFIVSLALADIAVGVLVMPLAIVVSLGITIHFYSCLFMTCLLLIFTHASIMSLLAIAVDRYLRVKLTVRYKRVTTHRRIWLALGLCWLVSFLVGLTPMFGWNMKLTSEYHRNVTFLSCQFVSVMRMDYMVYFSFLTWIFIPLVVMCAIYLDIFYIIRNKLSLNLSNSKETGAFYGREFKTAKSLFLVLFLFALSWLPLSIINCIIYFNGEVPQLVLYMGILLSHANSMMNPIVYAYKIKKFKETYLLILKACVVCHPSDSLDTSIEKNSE
Nature of the test: Activity assay of adenosine receptor modulators, A3R cAMP (Table 1). The format is cell-based. The protocol:
as §1

In a further test the target is T2, A1R (Homo sapiens, UniProt P30542).
T2 sequence (P30542 1-326): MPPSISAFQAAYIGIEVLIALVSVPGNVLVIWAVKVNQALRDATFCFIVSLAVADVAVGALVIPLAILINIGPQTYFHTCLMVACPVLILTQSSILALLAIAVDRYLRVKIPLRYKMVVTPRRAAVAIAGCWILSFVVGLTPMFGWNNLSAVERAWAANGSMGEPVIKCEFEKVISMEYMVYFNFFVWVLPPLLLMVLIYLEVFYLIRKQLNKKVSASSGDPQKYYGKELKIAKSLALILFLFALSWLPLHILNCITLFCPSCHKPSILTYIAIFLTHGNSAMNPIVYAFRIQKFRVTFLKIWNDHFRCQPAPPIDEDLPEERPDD
Nature of the test: Activity assay of adenosine receptor modulators, A1R cAMP (Table 1). Type of test: cell-based. The protocol:
as §1

In another test the target is T3, Adenosine A2B Receptor (Homo sapiens, UniProt P29275).
T3 sequence (P29275 1-332): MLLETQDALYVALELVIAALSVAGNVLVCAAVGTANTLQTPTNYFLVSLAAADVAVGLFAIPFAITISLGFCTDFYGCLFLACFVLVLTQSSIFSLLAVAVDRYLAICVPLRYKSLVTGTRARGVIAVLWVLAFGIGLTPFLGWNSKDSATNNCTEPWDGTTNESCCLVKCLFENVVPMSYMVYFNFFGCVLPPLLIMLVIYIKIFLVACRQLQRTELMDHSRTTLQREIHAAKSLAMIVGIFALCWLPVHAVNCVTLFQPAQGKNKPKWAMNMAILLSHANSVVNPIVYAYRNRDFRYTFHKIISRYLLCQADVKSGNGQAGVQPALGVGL
Nature of the test: Activity assay of adenosine receptor modulators, Adenosine A2B Receptor (Table 1). The format is biochemical. The settings on record: cAMP; read-out: A2BR cAMP IC50. The protocol: as §1

Sequence of Adenosine A2A Receptor (P29274 whole entry): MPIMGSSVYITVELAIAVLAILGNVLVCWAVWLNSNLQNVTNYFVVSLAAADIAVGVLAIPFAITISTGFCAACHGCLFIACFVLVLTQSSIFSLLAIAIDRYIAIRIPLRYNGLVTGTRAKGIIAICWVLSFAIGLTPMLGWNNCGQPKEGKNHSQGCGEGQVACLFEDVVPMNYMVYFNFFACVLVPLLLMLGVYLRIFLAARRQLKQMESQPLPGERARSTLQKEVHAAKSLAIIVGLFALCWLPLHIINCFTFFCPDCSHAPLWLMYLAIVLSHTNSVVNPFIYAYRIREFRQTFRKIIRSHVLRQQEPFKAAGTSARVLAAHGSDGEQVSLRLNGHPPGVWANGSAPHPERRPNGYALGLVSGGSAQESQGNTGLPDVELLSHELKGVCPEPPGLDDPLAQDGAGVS

Regarding `Cc1nc2nc(N[C@@H](C)c3cncc(F)c3)nc(C(=O)N3CCCC3)c2s1` [Example 1, (S)-(5-((1-(5-Fluoropyridin-3-yl)ethyl)amino)-2-methylthiazolo[4,5-d]pyrimidin-7-yl)(pyrrolidin-1-yl)methanone], the 50% inhibitory concentration (IC50) is 0.1 to 1 µM on Adenosine A2A Receptor, 0.1 to 1 µM against A3R, > 1 µM against A1R and < 0.1 µM on Adenosine A2B Receptor.
For `Cc1nc2nc(N[C@@H](C)c3cncc(F)c3)nc(C(=O)N3CCC3)c2s1` [Example 2, (S)-Azetidin-1-yl(5-((1-(5-fluoropyridin-3-yl)ethyl)amino)-2-methylthiazolo[4,5-d]pyrimidin-7-yl)methanone], the IC50 on Adenosine A2A Receptor is 0.1 to 1 µM; against A3R, 0.1 to 1 µM; against A1R, > 1 µM; at Adenosine A2B Receptor it was < 0.1 µM.
For `CO[C@@H]1CCN(C(=O)c2nc(N[C@@H](C)c3cncc(F)c3)nc3nc(C)sc23)C1` [Example 40, (5-(((S)-1-(5-Fluoropyridin-3-yl)ethyl)amino)-2-methylthiazolo[4,5-d]pyrimidin-7-yl)((R)-3-methoxypyrrolidin-1-yl)methanone], the IC50 on Adenosine A2A Receptor was 0.1 to 1 µM; at A3R, > 1 µM; against A1R, > 1 µM; at Adenosine A2B Receptor, < 0.1 µM.
For the compound `Cc1nc2nc(N[C@@H](C)c3ccccn3)nc(C(=O)N3CCCC3)c2s1` [Example 9, (S)-(2-Methyl-5-((1-(pyridin-2-yl)ethyl)amino)thiazolo[4,5-d]pyrimidin-7-yl)(pyrrolidin-1-yl)methanone], the IC50 at Adenosine A2A Receptor was 0.1 to 1 µM; against A3R, 0.1 to 1 µM; at A1R, > 1 µM; at Adenosine A2B Receptor, < 0.1 µM.
As for `COC[C@@H]1CCN(C(=O)c2nc(N[C@@H](C)c3cncc(F)c3)nc3nc(C)sc23)C1` [Example 47, (5-(((S)-1-(5-Fluoropyridin-3-yl)ethyl)amino)-2-methylthiazolo[4,5-d]pyrimidin-7-yl)((R)-3-(methoxymethyl)pyrrolidin-1-yl)methanone], the IC50 at Adenosine A2A Receptor was > 1 µM; against A3R it was > 1 µM; against A1R it was > 1 µM; on Adenosine A2B Receptor, < 0.1 µM.
Take `Cc1nc2nc(N[C@@H](C)c3cccnc3)nc(C(=O)N3CC(NC(=O)C45CC6CC(CC(C6)C4)C5)C3)c2s1` [Example 77, N-[1-[2-Methyl-5-[[(S)-1-(3-pyridyl)ethyl]amino]thiazolo[4,5-d]pyrimidine-7-carbonyl]azetidin-3-yl]adamantane-1-carboxamide]: the IC50 at Adenosine A2A Receptor was < 0.1 µM; on A3R, 0.1 to 1 µM; on A1R, > 1 µM; on Adenosine A2B Receptor, < 0.1 µM.
On to `Cc1nc2nc(N[C@@H](C)c3cccnc3)nc(C(=O)N3CC(NC(=O)C4CCCCC4)C3)c2s1` [Example 81, N-[1-[2-Methyl-5-[[(S)-1-(3-pyridyl)ethyl]amino]thiazolo[4,5-d]pyrimidine-7-carbonyl]azetidin-3-yl]cyclohexanecarboxamide], for which the IC50 at Adenosine A2A Receptor is < 0.1 µM; against A3R it was 0.1 to 1 µM; against A1R it was > 1 µM; at Adenosine A2B Receptor, < 0.1 µM.
For `CC(=O)Nc1ccc(CCNC(=O)c2nc(N[C@@H](C)c3cncc(F)c3)nc3nc(C)sc23)cc1` [Example 24, (S)—N-(4-Acetamidophenethyl)-5-((1-(5-fluoropyridin-3-yl)ethyl)amino)-2-methylthiazolo[4,5-d]pyrimidine-7-carboxamide], the IC50 at Adenosine A2A Receptor is > 1 µM; on A3R, > 1 µM; at A1R it was > 1 µM; on Adenosine A2B Receptor, < 0.1 µM.
`Cc1nc2nc(N[C@@H](C)c3cncc(F)c3)nc(C(=O)N3CC(NC(=O)C45CCC(CC4)CC5)C3)c2s1` [Example 67, (S)—N-(1-(5-((1-(5-Fluoropyridin-3-yl)ethyl)amino)-2-methylthiazolo[4,5-d]pyrimidine-7-carbonyl)azetidin-3-yl)bicyclo[2.2.2]octane-1-carboxamide]: the IC50 was < 0.1 µM at Adenosine A2A Receptor, < 0.1 µM against A3R, > 1 µM against A1R and < 0.1 µM on Adenosine A2B Receptor.
`Cc1nc2nc(N[C@@H](C)c3cncc(F)c3)nc(C(=O)N3CC(NC(=O)c4ccccc4F)C3)c2s1` [Example 59, (S)-2-Fluoro-N-(1-(5-((1-(5-fluoropyridin-3-yl)ethyl)amino)-2-methylthiazolo[4,5-d]pyrimidine-7-carbonyl)azetidin-3-yl)benzamide]: the IC50 at Adenosine A2A Receptor was < 0.1 µM; at A3R it was 0.1 to 1 µM; against A1R it was > 1 µM; at Adenosine A2B Receptor, < 0.1 µM.
In the case of `COc1cccc(C(=O)NC2CN(C(=O)c3nc(N[C@@H](C)c4cncc(F)c4)nc4nc(C)sc34)C2)c1` [Example 71, (S)—N-(1-(5-((1-(5-Fluoropyridin-3-yl)ethyl)amino)-2-methylthiazolo[4,5-d]pyrimidine-7-carbonyl)azetidin-3-yl)-3-methoxybenzamide], the IC50 at Adenosine A2A Receptor is < 0.1 µM; on A3R it was 0.1 to 1 µM; against A1R it was > 1 µM; on Adenosine A2B Receptor it was < 0.1 µM.
Consider `Cc1nc2nc(N[C@@H](C)c3cccnc3)nc(C(=O)N3CC(NC(=O)C4(C)CC4)C3)c2s1` [Example 76, 1-Methyl-N-[1-[2-methyl-5-[[(S)-1-(3-pyridyl)ethyl]amino]thiazolo[4,5-d]pyrimidine-7-carbonyl]azetidin-3-yl]cyclopropanecarboxamide], for which the IC50 at Adenosine A2A Receptor was < 0.1 µM; on A3R, 0.1 to 1 µM; against A1R it was > 1 µM; on Adenosine A2B Receptor, 0.1 to 1 µM.
Take `Cc1nc2nc(N[C@@H](C)c3cccnc3)nc(C(=O)N3CC(NC(=O)C4CCOCC4)C3)c2s1` [Example 82, N-[1-[2-Methyl-5-[[(S)-1-(3-pyridyl)ethyl]amino]thiazolo[4,5-d]pyrimidine-7-carbonyl]azetidin-3-yl]tetrahydropyran-4-carboxamide]: the IC50 is < 0.1 µM on Adenosine A2A Receptor, > 1 µM on A3R, > 1 µM on A1R and 0.1 to 1 µM at Adenosine A2B Receptor.
Take `Cc1nc2nc(N[C@@H](C)c3ccccn3)nc(C(=O)N3CC(NC(=O)Nc4ccccc4)C3)c2s1` [Example 78, 1-[1-[2-Methyl-5-[[(S)-1-(2-pyridyl)ethyl]amino]thiazolo[4,5-d]pyrimidine-7-carbonyl]azetidin-3-yl]-3-phenyl-urea]: the IC50 at Adenosine A2A Receptor was < 0.1 µM; against A3R, > 1 µM; against A1R it was > 1 µM; on Adenosine A2B Receptor it was 0.1 to 1 µM.
`Cc1nc2nc(N[C@@H](C)c3ccccn3)nc(C(=O)N3CC(NC(=O)C(C)(C)C)C3)c2s1` [Example 62, 2,2-Dimethyl-N-[1-[2-methyl-5-[[(S)-1-(2-pyridyl)ethyl]amino]thiazolo[4,5-d]pyrimidine-7-carbonyl]azetidin-3-yl]propanamide]: the IC50 is < 0.1 µM on Adenosine A2A Receptor, 0.1 to 1 µM at A3R, > 1 µM against A1R and < 0.1 µM on Adenosine A2B Receptor.
For the compound `CC(=O)NCC1CN(C(=O)c2nc(N[C@@H](C)c3cncc(F)c3)nc3nc(C)sc23)C1` [Example 39, (S)—N-((1-(5-((1-(5-Fluoropyridin-3-yl)ethyl)amino)-2-methylthiazolo[4,5-d]pyrimidine-7-carbonyl)azetidin-3-yl)methyl)acetamide], the IC50 at Adenosine A2A Receptor is > 1 µM; on A3R, > 1 µM; against A1R, > 1 µM; on Adenosine A2B Receptor, < 0.1 µM.
In the case of `Cc1nc2nc(N[C@@H](C)c3cncc(F)c3)nc(C(=O)N3CC(NC(=O)C4CCCCC4)C3)c2s1` [Example 61, (S)—N-(1-(5-((1-(5-Fluoropyridin-3-yl)ethyl)amino)-2-methylthiazolo[4,5-d]pyrimidine-7-carbonyl)azetidin-3-yl)cyclohexanecarboxamide], the IC50 was < 0.1 µM on Adenosine A2A Receptor, < 0.1 µM against A3R, > 1 µM at A1R and < 0.1 µM at Adenosine A2B Receptor.
Consider `CC(=O)NC1CN(C(=O)c2nc(N[C@@H](C)c3cncc(F)c3)nc3nc(C)sc23)C1` [Example 28, (S)—N-(1-(5-((1-(5-Fluoropyridin-3-yl)ethyl)amino)-2-methylthiazolo[4,5-d]pyrimidine-7-carbonyl)azetidin-3-yl)acetamide], for which the IC50 on Adenosine A2A Receptor was 0.1 to 1 µM; against A3R, > 1 µM; against A1R, > 1 µM; at Adenosine A2B Receptor, < 0.1 µM.

A word on the IC50: it is the concentration needed to halve the response being measured.

Source of the values: patent publication US20200079793A1, “COMPOUNDS AND METHODS FOR MODULATING ADENOSINE A2B RECEPTOR AND ADENOSINE A2A RECEPTOR” (CORVUS PHARMACEUTICALS, INC., priority 2018, published 2020).
